Patent US6380209B1 (dated 2002)
Where a name gives a salt, the structure may show the parent alone.

melting point: > 260 °C (dec.)
Structure (SMILES): Fc1ccc(-c2cc(NCC3CCNCC3)c3sccc3n2)cc1 (as salt: hydrochloride)
